{"source": "ChEMBL document CHEMBL1125524", "about": "“Adenosine A1 antagonists. 2. Structure-activity relationships on diuretic activities and protective effects against acute renal failure” (J Med Chem, 1992)", "key": {"Rattus norvegicus [1]": {"system": "Rattus norvegicus", "assay": "Serum creatinine concentration measured after intraperitoneal administration of 10 mg/kg of compound to rats(vehicle 3.38+/-0.29)", "assay_type": "functional"}, "Rattus norvegicus [2]": {"system": "Rattus norvegicus", "assay": "Effect on urinary excretion potassium and sodium after oral administration of 25 mg/kg to rats(potassium and sodium excretion in control rat is 0.209+/-0.007)", "assay_type": "functional, Urine"}, "Rattus norvegicus [3]": {"system": "Rattus norvegicus", "assay": "Ratio of urinary excretion value (urinary volume) in treated rats to that in control rats, at a peroral dose of 25 mg/Kg", "assay_type": "functional, Urine"}, "Rattus norvegicus [4]": {"system": "Rattus norvegicus", "assay": "Ratio of sodium ion/potassium ion concentration in treated rats to that in control rats, at a peroral dose of 25 mg/Kg", "assay_type": "functional"}, "Rattus norvegicus [5]": {"system": "Rattus norvegicus", "assay": "Ratio of urinary excretion value (Na+ concentration) in treated rats to that in control rats, at a peroral dose of 25 mg/Kg", "assay_type": "functional, Urine"}, "Rattus norvegicus [6]": {"system": "Rattus norvegicus", "assay": "Percent inhibition of serum creatinine by the compound given as ratio of Cr value in treated to vehicle treated ones after intraperitoneal administration of 10 mg/kg of compound to rats(vehicle 3.38+/-0.29)", "assay_type": "functional", "settings": "ip"}, "Rattus norvegicus [7]": {"system": "Rattus norvegicus", "assay": "Oral diuretic activity was measured after oral administration of 25 mg/kg to rats(control volume is 1.02+/-0.02)", "assay_type": "functional, Urine"}, "Rattus norvegicus [8]": {"system": "Rattus norvegicus", "assay": "Urea nitrogen concentration measured after intraperitoneal administration of 10 mg/kg of compound to rats(vehicle 114+/-8.7)", "assay_type": "functional"}, "Rattus norvegicus [9]": {"system": "Rattus norvegicus", "assay": "Percent inhibition of Urea nitrogen by the compound given as ratio of UN value in treated to vehicle treated ones after intraperitoneal administration of 10 mg/kg of compound to rats(vehicle 114+/-8.7)", "assay_type": "functional", "settings": "ip"}, "Adenosine receptor A1": {"target": "T1, Adenosine receptor A1 (Cavia porcellus, UniProt P47745)", "T1 sequence (P47745 whole entry)": "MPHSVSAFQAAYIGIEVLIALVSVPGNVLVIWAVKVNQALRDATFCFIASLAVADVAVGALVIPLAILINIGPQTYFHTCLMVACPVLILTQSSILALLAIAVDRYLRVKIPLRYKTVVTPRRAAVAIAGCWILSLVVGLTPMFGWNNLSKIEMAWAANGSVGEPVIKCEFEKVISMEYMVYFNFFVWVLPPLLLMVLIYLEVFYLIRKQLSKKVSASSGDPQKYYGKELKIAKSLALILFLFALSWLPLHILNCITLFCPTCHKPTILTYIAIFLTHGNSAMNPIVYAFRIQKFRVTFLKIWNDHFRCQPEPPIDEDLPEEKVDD", "description": "Binding affinity against adenosine A1 receptor in guinea pig forebrain membranes using N6-[3H]cyclohexyladenosine as radioligand"}, "Adenosine A2 receptor [10]": {"target": "T2, Adenosine A2 receptor (Rattus norvegicus, UniProt P29276+P30543)", "description": "Binding affinity towards adenosine A2 receptor in rat striatal membranes using N-[3H]-ethyladenosin-5''-uronamide as radioligand"}, "Adenosine A2 receptor [11]": {"target": "T2, Adenosine A2 receptor", "remark": "listed apart in the source"}, "Rattus norvegicus [12]": {"system": "Rattus norvegicus", "assay": "Serum creatinine concentration measured after intraperitoneal administration of 1 mg/kg of compound to rats(vehicle 3.62+/-0.52)", "assay_type": "functional"}, "Rattus norvegicus [13]": {"system": "Rattus norvegicus", "assay": "Serum creatinine concentration measured after intraperitoneal administration of 10 mg/kg of compound to rats(vehicle 3.93+/-0.45)", "assay_type": "functional"}, "Rattus norvegicus [14]": {"system": "Rattus norvegicus", "assay": "Effect on urinary excretion potassium and sodium after oral administration of 0.4 mg/kg to rats(potassium and sodium excretion in control rat is 0.191+/-0.020)", "assay_type": "functional, Urine"}, "Rattus norvegicus [15]": {"system": "Rattus norvegicus", "assay": "Percent inhibition of serum creatinine by the compound given as ratio of Cr value in treated to vehicle treated ones after intraperitoneal administration of 10 mg/kg of compound to rats(vehicle 3.93+/-0.45)", "assay_type": "functional", "settings": "ip"}, "Rattus norvegicus [16]": {"system": "Rattus norvegicus", "assay": "Ratio of urinary excretion value (urinary volume) in treated rats to that in control rats, at a peroral dose of 0.1 mg/Kg", "assay_type": "functional, Urine"}, "Rattus norvegicus [17]": {"system": "Rattus norvegicus", "assay": "Ratio of urinary excretion value (urinary volume) in treated rats to that in control rats, at a peroral dose of 0.4 mg/Kg", "assay_type": "functional, Urine"}, "Rattus norvegicus [18]": {"system": "Rattus norvegicus", "assay": "Ratio of urinary excretion value (urinary volume) in treated rats to that in control rats, at a peroral dose of 1.6 mg/Kg", "assay_type": "functional, Urine"}, "Rattus norvegicus [19]": {"system": "Rattus norvegicus", "assay": "Percent inhibition of serum creatinine by the compound given as ratio of Cr value in treated to vehicle treated ones after intraperitoneal administration of 1 mg/kg of compound to rats(vehicle 3.62+/-0.52)", "assay_type": "functional", "settings": "ip"}, "Rattus norvegicus [20]": {"system": "Rattus norvegicus", "assay": "Oral diuretic activity was measured after oral administration of 0.1 mg/kg to rats(control volume is 1.15+/-0.12)", "assay_type": "functional, Urine"}, "Rattus norvegicus [21]": {"system": "Rattus norvegicus", "assay": "Ratio of sodium ion/potassium ion concentration in treated rats to that in control rats, at a peroral dose of 0.1 mg/Kg", "assay_type": "functional"}, "Rattus norvegicus [22]": {"system": "Rattus norvegicus", "assay": "Ratio of sodium ion/potassium ion concentration in treated rats to that in control rats, at a peroral dose of 0.4 mg/Kg", "assay_type": "functional"}, "Rattus norvegicus [23]": {"system": "Rattus norvegicus", "assay": "Ratio of sodium ion/potassium ion concentration in treated rats to that in control rats, at a peroral dose of 1.6 mg/Kg", "assay_type": "functional"}, "Rattus norvegicus [24]": {"system": "Rattus norvegicus", "assay": "Ratio of urinary excretion value (Na+ concentration) in treated rats to that in control rats, at a peroral dose of 0.1 mg/Kg", "assay_type": "functional, Urine"}, "Rattus norvegicus [25]": {"system": "Rattus norvegicus", "assay": "Ratio of urinary excretion value (Na+ concentration) in treated rats to that in control rats, at a peroral dose of 0.4 mg/Kg", "assay_type": "functional, Urine"}, "Rattus norvegicus [26]": {"system": "Rattus norvegicus", "assay": "Ratio of urinary excretion value (Na+ concentration) in treated rats to that in control rats, at a peroral dose of 1.6 mg/Kg", "assay_type": "functional, Urine"}, "Rattus norvegicus [27]": {"system": "Rattus norvegicus", "assay": "Urea nitrogen concentration measured after intraperitoneal administration of 1 mg/kg of compound to rats(vehicle 105.2+/-14.9)", "assay_type": "functional"}, "Rattus norvegicus [28]": {"system": "Rattus norvegicus", "assay": "Oral diuretic activity was measured after oral administration of 0.4 mg/kg to rats(control volume is 1.15+/-0.17)", "assay_type": "functional, Urine"}, "Rattus norvegicus [29]": {"system": "Rattus norvegicus", "assay": "Oral diuretic activity was measured after oral administration of 1.6 mg/kg to rats(control volume is 0.96+/-0.09)", "assay_type": "functional, Urine"}, "Rattus norvegicus [30]": {"system": "Rattus norvegicus", "assay": "Urea nitrogen concentration measured after intraperitoneal administration of 10 mg/kg of compound to rats(vehicle 129.1+/-14.5)", "assay_type": "functional"}, "Rattus norvegicus [31]": {"system": "Rattus norvegicus", "assay": "Percent inhibition of Urea nitrogen by the compound given as ratio of UN value in treated to vehicle treated ones after intraperitoneal administration of 1 mg/kg of compound to rats(vehicle 105.2+/-14.9)", "assay_type": "functional", "settings": "ip"}, "Rattus norvegicus [32]": {"system": "Rattus norvegicus", "assay": "Percent inhibition of Urea nitrogen by the compound given as ratio of UN value in treated to vehicle treated ones after intraperitoneal administration of 10 mg/kg of compound to rats(vehicle 129.1+/-14.5)", "assay_type": "functional", "settings": "ip"}, "Rattus norvegicus [33]": {"system": "Rattus norvegicus", "assay": "Effect on urinary excretion potassium and sodium after oral administration of 1.6 mg/kg to rats(potassium and sodium excretion in control rat is 0.147+/-0.015)", "assay_type": "functional, Urine"}, "Rattus norvegicus [34]": {"system": "Rattus norvegicus", "assay": "Effect on urinary excretion potassium and sodium after oral administration of 0.1 mg/kg to rats(potassium and sodium excretion in control rat is 0.133+/-0.022)", "assay_type": "functional, Urine"}}, "note": "pKi: −log10 of the molar value.", "data": [{"smiles": "Nc1nc2ccc(Cl)cc2n2c(-c3ccccc3)nnc12", "values": [{"measurement": "Cr", "setting": "Rattus norvegicus [1]", "value": 4.58, "unit": "mg/dL"}, {"measurement": "Na", "setting": "Rattus norvegicus [2]", "value": 0.186, "unit": "m equiv 6hr-1 100g-1"}, {"measurement": "T/C", "setting": "Rattus norvegicus [3]", "value": 0.85}, {"measurement": "Na+/K+", "setting": "Rattus norvegicus [4]", "value": 1.05}, {"measurement": "T/C", "setting": "Rattus norvegicus [5]", "value": 0.89}, {"measurement": "inhibition in vivo at 10 mg/kg", "setting": "Rattus norvegicus [6]", "value": -36, "unit": "%"}, {"measurement": "Urine volume", "setting": "Rattus norvegicus [7]", "value": 0.87, "unit": "ml 6hr-1 100g-1"}, {"measurement": "UN", "setting": "Rattus norvegicus [8]", "value": 137.8, "unit": "mg/dL"}, {"measurement": "inhibition in vivo at 10 mg/kg", "setting": "Rattus norvegicus [9]", "value": -21, "unit": "%"}, {"measurement": "pKi", "setting": "Adenosine receptor A1", "value": 5.16}, {"measurement": "Ki", "setting": "Adenosine A2 receptor [10]", "value": 21, "unit": "nM"}, {"measurement": "Ki", "setting": "Adenosine A2 receptor [11]", "value": 5.1, "unit": "nM"}]}, {"smiles": "CCn1c(=O)c2nc(C(C3CC3)C3CC3)[nH]c2n(CC)c1=O", "values": [{"measurement": "Cr", "setting": "Rattus norvegicus [12]", "value": 3.24, "unit": "mg/dL"}, {"measurement": "Cr", "setting": "Rattus norvegicus [13]", "value": 1.74, "unit": "mg/dL"}, {"measurement": "Na", "setting": "Rattus norvegicus [14]", "value": 0.433, "unit": "m equiv 6hr-1 100g-1"}, {"measurement": "inhibition in vivo at 10 mg/kg", "setting": "Rattus norvegicus [15]", "value": 56, "unit": "%"}, {"measurement": "T/C", "setting": "Rattus norvegicus [16]", "value": 0.72}, {"measurement": "T/C", "setting": "Rattus norvegicus [17]", "value": 1.84}, {"measurement": "T/C", "setting": "Rattus norvegicus [18]", "value": 1.71}, {"measurement": "inhibition in vivo at 1 mg/kg", "setting": "Rattus norvegicus [19]", "value": 10, "unit": "%"}, {"measurement": "Urine volume", "setting": "Rattus norvegicus [20]", "value": 0.83, "unit": "ml 6hr-1 100g-1"}, {"measurement": "Na+/K+", "setting": "Rattus norvegicus [21]", "value": 1.37}, {"measurement": "Na+/K+", "setting": "Rattus norvegicus [22]", "value": 1.63}, {"measurement": "Na+/K+", "setting": "Rattus norvegicus [23]", "value": 1.71}, {"measurement": "T/C", "setting": "Rattus norvegicus [24]", "value": 0.85}, {"measurement": "T/C", "setting": "Rattus norvegicus [25]", "value": 2.27}, {"measurement": "T/C", "setting": "Rattus norvegicus [26]", "value": 2.12}, {"measurement": "UN", "setting": "Rattus norvegicus [27]", "value": 98.5, "unit": "mg/dL"}, {"measurement": "Urine volume", "setting": "Rattus norvegicus [28]", "value": 2.11, "unit": "ml 6hr-1 100g-1"}, {"measurement": "Urine volume", "setting": "Rattus norvegicus [29]", "value": 1.72, "unit": "ml 6hr-1 100g-1"}, {"measurement": "UN", "setting": "Rattus norvegicus [30]", "value": 50.6, "unit": "mg/dL"}, {"measurement": "inhibition in vivo at 1 mg/kg", "setting": "Rattus norvegicus [31]", "value": 6, "unit": "%"}, {"measurement": "inhibition in vivo at 10 mg/kg", "setting": "Rattus norvegicus [32]", "value": 61, "unit": "%"}, {"measurement": "Na", "setting": "Rattus norvegicus [33]", "value": 0.312, "unit": "m equiv 6hr-1 100g-1"}, {"measurement": "Na", "setting": "Rattus norvegicus [34]", "value": 0.113, "unit": "m equiv 6hr-1 100g-1"}, {"measurement": "pKi", "setting": "Adenosine A2 receptor [11]", "value": 6.16}]}]}
